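Test compounds were applied to cells in 96-well plates for 48 hours at 5 doses. TGI is the concentration that stops growth completely.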
Tests used:
Assay in all cases: growth of human tumour cells (NCI), 48 h
[1] = tested on: K-562 leukemia
[2] = tested on: MDA-MB-231 breast
[3] = tested on: SK-MEL-5 melanoma
[4] = tested on: RPMI-8226 leukemia
[5] = tested on: MOLT-4 leukemia
[6] = tested on: NCI/ADR-RES ovarian
[7] = tested on: HS 578T breast
[8] = tested on: OVCAR-5 ovarian
[9] = tested on: HT29 colon
[10] = tested on: SW-620 colon
[11] = tested on: T-47D breast
[12] = tested on: HOP-62 NSCLC
[13] = tested on: SK-OV-3 ovarian
[14] = tested on: UACC-257 melanoma
[15] = tested on: BT-549 breast
[16] = tested on: OVCAR-8 ovarian
[17] = tested on: NCI-H23 lung
[18] = tested on: HCT-15 colon
[19] = tested on: U251 CNS
[20] = tested on: SF-539 CNS
[21] = tested on: LOX IMVI melanoma
[22] = tested on: OVCAR-4 ovarian
[23] = tested on: OVCAR-3 ovarian
[24] = tested on: 786-0 renal
[25] = tested on: A549 NSCLC
[26] = tested on: MALME-3M melanoma
[27] = tested on: HL-60(TB) leukemia
[28] = tested on: SN12C renal
[29] = tested on: A498 renal
[30] = tested on: NCI-H460 lung
[31] = tested on: CAKI-1 renal
[32] = tested on: HCT-116 colon
[33] = tested on: SF-268 CNS
[34] = tested on: ACHN renal
[35] = tested on: SF-295 CNS
[36] = tested on: HOP-92 NSCLC
[37] = tested on: PC-3 prostate
[38] = tested on: NCI-H226 lung
[39] = tested on: TK-10 renal
[40] = tested on: MCF7 breast
[41] = tested on: MDA-MB-435
[42] = tested on: SNB-19 CNS
[43] = tested on: CCRF-CEM leukemia
[44] = tested on: SK-MEL-2 melanoma
[45] = tested on: IGROV1 ovarian
[46] = tested on: DU-145 prostate
[47] = tested on: SR leukemia
[48] = tested on: MDA-N
[49] = tested on: UACC-62 melanoma
[50] = tested on: SK-MEL-28 melanoma
[51] = tested on: SNB-75 CNS
[52] = tested on: UO-31 renal
[53] = tested on: EKVX NSCLC
[54] = tested on: KM12 colon
[55] = tested on: M14 melanoma
[56] = tested on: NCI-H522 lung
[57] = tested on: RXF 393 renal
[58] = tested on: COLO 205 colon
[59] = tested on: HCC-2998 colon

Question: For `Cc1c2c(n3c(nc4ccccc43)c1C#N)SCC2`, which TGI [1] is on record?
Answer: Its TGI is greater than 10 µM.

Question: And the TGI [2]?
Answer: Its TGI is greater than 10 µM.

Question: And the TGI [3]?
Answer: Its TGI is greater than 10 µM.

Question: And the TGI [4]?
Answer: The TGI was greater than 10 µM.

Question: And the TGI [5]?
Answer: The TGI was greater than 10 µM.

Question: And the TGI [6]?
Answer: The TGI was greater than 10 µM.

Question: What about the TGI [7] of the same compound?
Answer: Its TGI is greater than 10 µM.

Question: And the TGI [8]?
Answer: The TGI was greater than 10 µM.

Question: What about the TGI [9] of the same compound?
Answer: Its TGI is greater than 10 µM.

Question: What about the TGI [10] of the same compound?
Answer: The TGI was greater than 10 µM.

Question: What about the TGI [11] of the same compound?
Answer: Its TGI is greater than 10 µM.

Question: What about the TGI [12] of the same compound?
Answer: Its TGI is greater than 10 µM.

Question: And the TGI [13]?
Answer: The TGI was greater than 10 µM.

Question: What about the TGI [14] of the same compound?
Answer: The TGI was greater than 10 µM.

Question: What about the TGI [15] of the same compound?
Answer: The TGI was greater than 10 µM.

Question: And the TGI [16]?
Answer: Its TGI is greater than 10 µM.

Question: What about the TGI [17] of the same compound?
Answer: Its TGI is greater than 10 µM.

Question: And the TGI [18]?
Answer: The TGI was greater than 10 µM.

Question: What about the TGI [19] of the same compound?
Answer: Its TGI is greater than 10 µM.

Question: What about the TGI [20] of the same compound?
Answer: The TGI was greater than 10 µM.

Question: And the TGI [21]?
Answer: Its TGI is greater than 10 µM.

Question: What about the TGI [22] of the same compound?
Answer: The TGI was greater than 10 µM.

Question: What about the TGI [23] of the same compound?
Answer: Its TGI is greater than 10 µM.

Question: And the TGI [24]?
Answer: The TGI was greater than 10 µM.

Question: What about the TGI [25] of the same compound?
Answer: The TGI was greater than 10 µM.

Question: What about the TGI [26] of the same compound?
Answer: Its TGI is greater than 10 µM.

Question: What about the TGI [27] of the same compound?
Answer: Its TGI is greater than 10 µM.

Question: What about the TGI [28] of the same compound?
Answer: Its TGI is greater than 10 µM.

Question: What about the TGI [29] of the same compound?
Answer: Its TGI is greater than 10 µM.

Question: And the TGI [30]?
Answer: The TGI was greater than 10 µM.

Question: What about the TGI [31] of the same compound?
Answer: Its TGI is greater than 10 µM.

Question: What about the TGI [32] of the same compound?
Answer: The TGI was greater than 10 µM.

Question: What about the TGI [33] of the same compound?
Answer: Its TGI is greater than 10 µM.

Question: What about the TGI [34] of the same compound?
Answer: The TGI was greater than 10 µM.

Question: What about the TGI [35] of the same compound?
Answer: Its TGI is greater than 10 µM.

Question: And the TGI [36]?
Answer: Its TGI is greater than 10 µM.

Question: What about the TGI [37] of the same compound?
Answer: Its TGI is greater than 10 µM.

Question: And the TGI [38]?
Answer: The TGI was greater than 10 µM.

Question: And the TGI [39]?
Answer: Its TGI is greater than 10 µM.

Question: And the TGI [40]?
Answer: Its TGI is greater than 10 µM.

Question: What about the TGI [41] of the same compound?
Answer: Its TGI is greater than 10 µM.

Question: And the TGI [42]?
Answer: Its TGI is greater than 10 µM.

Question: What about the TGI [43] of the same compound?
Answer: Its TGI is greater than 10 µM.

Question: What about the TGI [44] of the same compound?
Answer: The TGI was greater than 10 µM.

Question: And the TGI [45]?
Answer: The TGI was greater than 10 µM.

Question: What about the TGI [46] of the same compound?
Answer: The TGI was greater than 10 µM.

Question: What about the TGI [47] of the same compound?
Answer: Its TGI is greater than 10 µM.

Question: What about the TGI [48] of the same compound?
Answer: The TGI was greater than 10 µM.

Question: And the TGI [49]?
Answer: Its TGI is greater than 10 µM.

Question: And the TGI [50]?
Answer: Its TGI is greater than 10 µM.

Question: And the TGI [51]?
Answer: The TGI was greater than 10 µM.

Question: What about the TGI [52] of the same compound?
Answer: Its TGI is greater than 10 µM.

Question: And the TGI [53]?
Answer: Its TGI is greater than 10 µM.

Question: What about the TGI [54] of the same compound?
Answer: The TGI was greater than 10 µM.

Question: What about the TGI [55] of the same compound?
Answer: The TGI was greater than 10 µM.

Question: Which results are given for `CC1CN(CCO)CC(C)O1` (stereo not drawn)?
Answer: TGI [56]: > 100 µM; TGI [1]: > 100 µM; TGI [2]: > 100 µM; TGI [3]: > 100 µM; TGI [4]: > 100 µM; TGI [5]: > 100 µM; TGI [6]: > 100 µM; TGI [7]: > 100 µM; TGI [8]: > 100 µM; TGI [9]: > 100 µM; TGI [10]: > 100 µM; TGI [11]: > 100 µM; TGI [12]: > 100 µM; TGI [13]: > 100 µM; TGI [14]: > 100 µM; TGI [15]: > 100 µM; TGI [16]: > 100 µM; TGI [17]: > 100 µM; TGI [18]: > 100 µM; TGI [19]: > 100 µM; TGI [57]: > 100 µM; TGI [20]: > 100 µM; TGI [22]: > 100 µM; TGI [23]: > 100 µM; TGI [58]: > 100 µM; TGI [24]: > 100 µM; TGI [25]: > 100 µM; TGI [26]: > 100 µM; TGI [27]: > 100 µM; TGI [28]: > 100 µM; TGI [29]: > 100 µM; TGI [30]: > 100 µM; TGI [31]: > 100 µM; TGI [32]: > 100 µM; TGI [33]: > 100 µM; TGI [34]: > 100 µM; TGI [35]: > 100 µM; TGI [36]: > 100 µM; TGI [37]: > 100 µM; TGI [38]: > 100 µM; TGI [39]: > 100 µM; TGI [40]: > 100 µM; TGI [41]: > 100 µM; TGI [42]: > 100 µM; TGI [43]: > 100 µM; TGI [59]: > 100 µM; TGI [44]: > 100 µM; TGI [45]: > 100 µM; TGI [46]: > 100 µM; TGI [47]: > 100 µM; TGI [48]: > 100 µM; TGI [49]: > 100 µM; TGI [50]: > 100 µM; TGI [51]: > 100 µM; TGI [52]: > 100 µM; TGI [53]: > 100 µM; TGI [54]: > 100 µM; TGI [55]: > 100 µM

Reference: PubChem BioAssay (NCI)
